Test results: ChEMBL document CHEMBL3112480, “γ-Alkylidene-γ-lactones and isobutylpyrrol-2(5H)-ones analogues to rubrolides as inhibitors of biofilm formation by gram-positive and gram-negative bacteria” (Bioorg Med Chem Lett, 2014)
In brackets after ≈: the same amount, converted by molar mass.

Experiments:
Streptococcus mutans [1] = assay: Antibacterial activity against Streptococcus mutans ATCC 25175 assessed as effect on planktonic growth at 21.9 ug/ml after 20 hrs relative to control; assay type: functional
Streptococcus mutans [2] = assay: Antibacterial activity against Streptococcus mutans ATCC 25175 assessed as effect on planktonic growth at 43.8 ug/ml after 20 hrs relative to control; assay type: functional
Streptococcus mutans [3] = assay: Antibacterial activity against Streptococcus mutans ATCC 25175 assessed as effect on planktonic growth at 87.5 ug/ml after 20 hrs relative to control; assay type: functional
Staphylococcus aureus [4] = assay: Antibacterial activity against Staphylococcus aureus ATCC 25923 assessed as effect on planktonic growth at 0.17 ug/ml after 20 hrs relative to control; assay type: functional
Staphylococcus aureus [5] = assay: Antibacterial activity against Staphylococcus aureus ATCC 25923 assessed as effect on planktonic growth at 0.34 ug/ml after 20 hrs relative to control; assay type: functional
Staphylococcus aureus [6] = assay: Antibacterial activity against Staphylococcus aureus ATCC 25923 assessed as effect on planktonic growth at 0.68 ug/ml after 20 hrs relative to control; assay type: functional
Staphylococcus aureus [7] = assay: Antibacterial activity against Staphylococcus aureus ATCC 25923 assessed as effect on planktonic growth at 1.37 ug/ml after 20 hrs relative to control; assay type: functional
Staphylococcus aureus [8] = assay: Antibacterial activity against Staphylococcus aureus ATCC 25923 assessed as effect on planktonic growth at 5.5 ug/ml after 20 hrs relative to control; assay type: functional
Staphylococcus aureus [9] = assay: Antibacterial activity against Staphylococcus aureus ATCC 25923 assessed as effect on planktonic growth at 2.73 ug/ml after 20 hrs relative to control; assay type: functional
Staphylococcus aureus [10] = assay: Antibacterial activity against Staphylococcus aureus ATCC 25923 assessed as effect on planktonic growth at 10.9 ug/ml after 20 hrs relative to control; assay type: functional
Staphylococcus aureus [11] = assay: Antibacterial activity against Staphylococcus aureus ATCC 25923 assessed as effect on planktonic growth at 21.9 ug/ml after 20 hrs relative to control; assay type: functional
Staphylococcus aureus [12] = assay: Antibacterial activity against Staphylococcus aureus ATCC 25923 assessed as effect on planktonic growth at 43.8 ug/ml after 20 hrs relative to control; assay type: functional
Staphylococcus aureus [13] = assay: Antibacterial activity against Staphylococcus aureus ATCC 25923 assessed as effect on planktonic growth at 87.5 ug/ml after 20 hrs relative to control; assay type: functional
Pseudomonas aeruginosa [14] = assay: Antibacterial activity against Pseudomonas aeruginosa ATCC 27853 assessed as effect on planktonic growth at 0.17 ug/ml after 20 hrs relative to control; assay type: functional
Pseudomonas aeruginosa [15] = assay: Antibacterial activity against Pseudomonas aeruginosa ATCC 27853 assessed as effect on planktonic growth at 0.34 ug/ml after 20 hrs relative to control; assay type: functional
Pseudomonas aeruginosa [16] = assay: Antibacterial activity against Pseudomonas aeruginosa ATCC 27853 assessed as effect on planktonic growth at 0.68 ug/ml after 20 hrs relative to control; assay type: functional
Pseudomonas aeruginosa [17] = assay: Antibacterial activity against Pseudomonas aeruginosa ATCC 27853 assessed as effect on planktonic growth at 1.37 ug/ml after 20 hrs relative to control; assay type: functional
Pseudomonas aeruginosa [18] = assay: Antibacterial activity against Pseudomonas aeruginosa ATCC 27853 assessed as effect on planktonic growth at 2.73 ug/ml after 20 hrs relative to control; assay type: functional
Pseudomonas aeruginosa [19] = assay: Antibacterial activity against Pseudomonas aeruginosa ATCC 27853 assessed as effect on planktonic growth at 5.5 ug/ml after 20 hrs relative to control; assay type: functional
Pseudomonas aeruginosa [20] = assay: Antibacterial activity against Pseudomonas aeruginosa ATCC 27853 assessed as effect on planktonic growth at 10.9 ug/ml after 20 hrs relative to control; assay type: functional
Pseudomonas aeruginosa [21] = assay: Antibacterial activity against Pseudomonas aeruginosa ATCC 27853 assessed as effect on planktonic growth at 21.9 ug/ml after 20 hrs relative to control; assay type: functional
Pseudomonas aeruginosa [22] = assay: Antibacterial activity against Pseudomonas aeruginosa ATCC 27853 assessed as effect on planktonic growth at 43.8 ug/ml after 20 hrs relative to control; assay type: functional
Pseudomonas aeruginosa [23] = assay: Antibacterial activity against Pseudomonas aeruginosa ATCC 27853 assessed as effect on planktonic growth at 87.5 ug/ml after 20 hrs relative to control; assay type: functional
[24] = system: Staphylococcus epidermidis; assay: Antibacterial activity against Staphylococcus epidermidis ATCC 35547 assessed as effect on planktonic growth at 0.17 ug/ml after 20 hrs relative to control; assay type: functional
[25] = system: Staphylococcus epidermidis; assay: Antibacterial activity against Staphylococcus epidermidis ATCC 35547 assessed as effect on planktonic growth at 0.34 ug/ml after 20 hrs relative to control; assay type: functional
[26] = system: Staphylococcus epidermidis; assay: Antibacterial activity against Staphylococcus epidermidis ATCC 35547 assessed as effect on planktonic growth at 0.68 ug/ml after 20 hrs relative to control; assay type: functional
[27] = system: Staphylococcus epidermidis; assay: Antibacterial activity against Staphylococcus epidermidis ATCC 35547 assessed as effect on planktonic growth at 1.37 ug/ml after 20 hrs relative to control; assay type: functional
[28] = system: Staphylococcus epidermidis; assay: Antibacterial activity against Staphylococcus epidermidis ATCC 35547 assessed as effect on planktonic growth at 2.73 ug/ml after 20 hrs relative to control; assay type: functional
[29] = system: Staphylococcus epidermidis; assay: Antibacterial activity against Staphylococcus epidermidis ATCC 35547 assessed as effect on planktonic growth at 5.5 ug/ml after 20 hrs relative to control; assay type: functional
[30] = system: Staphylococcus epidermidis; assay: Antibacterial activity against Staphylococcus epidermidis ATCC 35547 assessed as effect on planktonic growth at 10.9 ug/ml after 20 hrs relative to control; assay type: functional
[31] = system: Staphylococcus epidermidis; assay: Antibacterial activity against Staphylococcus epidermidis ATCC 35547 assessed as effect on planktonic growth at 21.9 ug/ml after 20 hrs relative to control; assay type: functional
[32] = system: Staphylococcus epidermidis; assay: Antibacterial activity against Staphylococcus epidermidis ATCC 35547 assessed as effect on planktonic growth at 43.8 ug/ml after 20 hrs relative to control; assay type: functional
[33] = system: Staphylococcus epidermidis; assay: Antibacterial activity against Staphylococcus epidermidis ATCC 35547 assessed as effect on planktonic growth at 87.5 ug/ml after 20 hrs relative to control; assay type: functional
Pseudomonas aeruginosa [34] = assay: Antibacterial activity against Pseudomonas aeruginosa ATCC 27853 assessed as inhibition of biofilm formation after 20 hrs by crystal-violet staining method; assay type: functional, organism-based; details: for IC50: ATCC 27853, 20 h
[35] = system: Staphylococcus epidermidis; assay: Antibacterial activity against Staphylococcus epidermidis ATCC 35547 assessed as inhibition of biofilm formation after 20 hrs by crystal-violet staining method; assay type: functional, organism-based; details: for IC50: ATCC 35547, 20 h
Streptococcus mutans [36] = assay: Antibacterial activity against Streptococcus mutans ATCC 25175 assessed as effect on planktonic growth at 0.17 ug/ml after 20 hrs relative to control; assay type: functional
Streptococcus mutans [37] = assay: Antibacterial activity against Streptococcus mutans ATCC 25175 assessed as effect on planktonic growth at 0.34 ug/ml after 20 hrs relative to control; assay type: functional
Streptococcus mutans [38] = assay: Antibacterial activity against Streptococcus mutans ATCC 25175 assessed as effect on planktonic growth at 0.68 ug/ml after 20 hrs relative to control; assay type: functional
Streptococcus mutans [39] = assay: Antibacterial activity against Streptococcus mutans ATCC 25175 assessed as effect on planktonic growth at 1.37 ug/ml after 20 hrs relative to control; assay type: functional
Streptococcus mutans [40] = assay: Antibacterial activity against Streptococcus mutans ATCC 25175 assessed as effect on planktonic growth at 2.73 ug/ml after 20 hrs relative to control; assay type: functional
Streptococcus mutans [41] = assay: Antibacterial activity against Streptococcus mutans ATCC 25175 assessed as effect on planktonic growth at 5.5 ug/ml after 20 hrs relative to control; assay type: functional
Streptococcus mutans [42] = assay: Antibacterial activity against Streptococcus mutans ATCC 25175 assessed as effect on planktonic growth at 10.9 ug/ml after 20 hrs relative to control; assay type: functional

COc1cccc(/C=C2\OC(=O)C(Br)=C2c2cc(Cl)ccc2OC)c1
Activity (Streptococcus mutans [1]): 14%
Activity (Streptococcus mutans [2]): 22.7%
Activity (Streptococcus mutans [3]): 49%
Activity (Staphylococcus aureus [4]): 10.3%
Activity (Staphylococcus aureus [5]): 30.5%
Activity (Staphylococcus aureus [6]): 47.2%
Activity (Staphylococcus aureus [7]): 52.1%
Activity (Staphylococcus aureus [8]): 34.4%
Activity (Staphylococcus aureus [9]): 39.5%
Activity (Staphylococcus aureus [10]): 43.1%
Activity (Staphylococcus aureus [11]): 47.2%
Activity (Staphylococcus aureus [12]): 80.5%
Activity (Staphylococcus aureus [13]): 134.6%
Activity (Pseudomonas aeruginosa [14]): -1.2%
Activity (Pseudomonas aeruginosa [15]): 0.5%
Activity (Pseudomonas aeruginosa [16]): 0.7%
Activity (Pseudomonas aeruginosa [17]): -7.3%
Activity (Pseudomonas aeruginosa [18]): -16%
Activity (Pseudomonas aeruginosa [19]): -19.4%
Activity (Pseudomonas aeruginosa [20]): -14.8%
Activity (Pseudomonas aeruginosa [21]): -11.6%
Activity (Pseudomonas aeruginosa [22]): -8.7%
Activity (Pseudomonas aeruginosa [23]): -9.5%
Activity [24]: 3.7%
Activity [25]: 0.1%
Activity [26]: -1.5%
Activity [27]: -4.7%
Activity [28]: -2.4%
Activity [29]: -4.6%
Activity [30]: -5.5%
Activity [31]: -1.3%
Activity [32]: 5.6%
Activity [33]: 10.6%
inhibition (Pseudomonas aeruginosa [34]): Dose-dependent effect
IC50 (Pseudomonas aeruginosa [34]): 1.7 µg/mL (≈ 4.03 µM)
inhibition [35]: Dose-dependent effect
IC50 [35]: > 87.5 µg/mL
Activity (Streptococcus mutans [36]): 26.9%
Activity (Streptococcus mutans [37]): 25.7%
Activity (Streptococcus mutans [38]): 23.9%
Activity (Streptococcus mutans [39]): 34.3%
Activity (Streptococcus mutans [40]): 37.3%
Activity (Streptococcus mutans [41]): 19.7%
Activity (Streptococcus mutans [42]): 18.8%

COc1ccc(Br)cc1C1=C(Br)C(=O)O/C1=C\c1ccc(Br)cc1
Activity (Streptococcus mutans [1]): 4%
Activity (Streptococcus mutans [2]): -11.3%
Activity (Streptococcus mutans [3]): -13.5%
Activity (Staphylococcus aureus [4]): -1.6%
Activity (Staphylococcus aureus [5]): 0.5%
Activity (Staphylococcus aureus [6]): 0.8%
Activity (Staphylococcus aureus [7]): 6.7%
Activity (Staphylococcus aureus [8]): 8.3%
Activity (Staphylococcus aureus [9]): 5.6%
Activity (Staphylococcus aureus [10]): 15.8%
Activity (Staphylococcus aureus [11]): 23.1%
Activity (Staphylococcus aureus [12]): 13.1%
Activity (Staphylococcus aureus [13]): 9.4%
Activity (Pseudomonas aeruginosa [14]): -1.8%
Activity (Pseudomonas aeruginosa [15]): -1.9%
Activity (Pseudomonas aeruginosa [16]): -1.8%
Activity (Pseudomonas aeruginosa [17]): -8.6%
Activity (Pseudomonas aeruginosa [18]): -19.2%
Activity (Pseudomonas aeruginosa [19]): -22%
Activity (Pseudomonas aeruginosa [20]): -17.6%
Activity (Pseudomonas aeruginosa [21]): -15.1%
Activity (Pseudomonas aeruginosa [22]): -12.1%
Activity (Pseudomonas aeruginosa [23]): -12.9%
Activity [24]: 8.1%
Activity [25]: 0.6%
Activity [26]: -0.2%
Activity [27]: -2.2%
Activity [28]: 4.5%
Activity [29]: 1%
Activity [30]: -1.5%
Activity [31]: 3.9%
Activity [32]: 22.1%
Activity [33]: 31.9%
inhibition (Pseudomonas aeruginosa [34]): Dose-dependent effect
IC50 (Pseudomonas aeruginosa [34]): > 87.5 µg/mL
inhibition [35]: Dose-dependent effect
IC50 [35]: 41.3 µg/mL (≈ 80.2 µM)
Activity (Streptococcus mutans [36]): 4.5%
Activity (Streptococcus mutans [37]): 3.8%
Activity (Streptococcus mutans [38]): 7%
Activity (Streptococcus mutans [39]): 12.3%
Activity (Streptococcus mutans [40]): 15%
Activity (Streptococcus mutans [41]): 10.3%
Activity (Streptococcus mutans [42]): 7.2%

COc1ccc(C)cc1C1=C(Br)C(=O)N(CC(C)C)C1(O)Cc1cccc(Cl)c1 (stereo unspecified)
Activity (Streptococcus mutans [1]): -12.5%
Activity (Streptococcus mutans [2]): -21%
Activity (Streptococcus mutans [3]): -31.2%
Activity (Staphylococcus aureus [4]): 6.7%
Activity (Staphylococcus aureus [5]): 11.4%
Activity (Staphylococcus aureus [6]): 10.8%
Activity (Staphylococcus aureus [7]): 9.7%
Activity (Staphylococcus aureus [8]): 5.4%
Activity (Staphylococcus aureus [9]): 12.8%
Activity (Staphylococcus aureus [10]): 4.3%
Activity (Staphylococcus aureus [11]): 3.4%
Activity (Staphylococcus aureus [12]): -5%
Activity (Staphylococcus aureus [13]): -12.1%
Activity (Pseudomonas aeruginosa [14]): -1.6%
Activity (Pseudomonas aeruginosa [15]): -1.3%
Activity (Pseudomonas aeruginosa [16]): -2.6%
Activity (Pseudomonas aeruginosa [17]): -3.4%
Activity (Pseudomonas aeruginosa [18]): -7%
Activity (Pseudomonas aeruginosa [19]): -8.6%
Activity (Pseudomonas aeruginosa [20]): -9.6%
Activity (Pseudomonas aeruginosa [21]): -7.9%
Activity (Pseudomonas aeruginosa [22]): -10.6%
Activity (Pseudomonas aeruginosa [23]): -11.6%
Activity [24]: 3.5%
Activity [25]: 2.4%
Activity [26]: 1.2%
Activity [27]: 0.9%
Activity [28]: 1.9%
Activity [29]: 12%
Activity [30]: -17.2%
Activity [31]: -7.3%
Activity [32]: -28.5%
Activity [33]: -7.8%
inhibition (Pseudomonas aeruginosa [34]): Dose-dependent effect
inhibition [35]: Dose-dependent effect
IC50 [35]: > 87.5 µg/mL
Activity (Streptococcus mutans [36]): 3%
Activity (Streptococcus mutans [37]): 2.4%
Activity (Streptococcus mutans [38]): 1.1%
Activity (Streptococcus mutans [39]): -4.8%
Activity (Streptococcus mutans [40]): -2.9%
Activity (Streptococcus mutans [41]): -11%
Activity (Streptococcus mutans [42]): -7.6%
